This assay deals with WNV virus like particles (VLP) that possess C, M, and E proteins. The conditions noted are these: for luciferase luminescence, original data (single wells, duplicates): Avg.VC 555022 / Avg.CC 1551.33 (plate 1), 522383 / 1614.33 (plate 2).

“And” between values parts separate entries of the source, which are not always exact repeats. Identical values can stand only once. Like-named read-outs stand apart in the source and are kept apart here.

Compound `CC[C@H](C)[C@@H]1NC(=O)[C@@H](NC(=O)[C@H](C)N)CSSC[C@@H](C(=O)NCC(=O)NCC(=O)NCC(=O)N[C@@H](CO)C(=O)O)NC(=O)[C@H](C)NC(=O)[C@H](CCCNC(=N)N)NC(=O)[C@H]([C@@H](C)O)NC(=O)[C@H](CO)NC(=O)[C@H](CO)NC(=O)[C@H](Cc2c[nH]cn2)NC1=O` [CP4, CIHSSTRAC] yielded an EC50 (48 h) of 17 nM. For the same compound, the “EC50 (neutralization of VLP) as concentration” value (48 h) worked out at 0.1194 µg/mL. Further, the “luciferase luminescence, original data (single wells, duplicates)” value was 125654 and 100462 (dilution 90); 31234 and 31350 (listed as B, dilution 30); 151785 and 142766 (listed as D, dilution 270); 243092 and 236564 (listed as E, dilution 810); 368265 and 376779 (listed as F, dilution 2430); 424174 and 466082 (listed as G, dilution 7290). Further, the “Avg. inhibition of VLP infection” value runs as follows: (dilution of peptide 30, 666 nanograms of peptide / well) 95%; (dilution of peptide 90, 222 nanograms of peptide / well) 80%; (dilution of peptide 270, 74 nanograms of peptide / well) 74%; (dilution of peptide 810, 24.7 nanograms of peptide / well) 57%; (dilution of peptide 2430, 8.2 nanograms of peptide / well) 33%; (dilution of peptide 7290, 2.7 nanograms of peptide / well) 20%. Under “sigmoidal 4PL interpolation from EC50 dilution”, the “half maximal effective concentration in nanograms/ml” value is listed as 119.48 nanograms/ml. Also, the “half maximal effective concentration in nanograms/well (150 ul)” value (well volume 150 ul, sigmoidal 4PL interpolation from EC50 dilution) is 17.94 nanograms/well.

A word on the EC50: it is the concentration that produces a half-maximal response. Higher therefore signals weaker potency.
